Measurements taken from patent US20220296595A1, “CDK INHIBITORS” (QILU REGOR THERAPEUTICS INC., priority 2019, published 2022).
Where two headings read alike, the source gives them in different places.

Key:
CDK4/CyclinD1 = biological target: T1, CDK4/CyclinD1 (Homo sapiens, UniProt P11802); test: Assay for inhibition of CDK4/CyclinD1 (Caliper microfluidic kinase assay); type: biochemical; conditions: CDK4/CyclinD1, 200 μM ATP
T1 construct: purchased Thermofisher PR8064A
In short: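 IC50 was obtained by 4-parameter sigmoidal fitting after 1 nM CDK4/CyclinD1, 200 μM ATP and 1 μM FL-34 substrate reacted for 3 h at room temperature (pH 7.5 HEPES, 10 mM MgCl2). After EDTA quench, substrate and product were separated and detected on a Caliper microfluidic chip.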

CDK6/CyclinD3 = biological target: T2, CDK6/CyclinD3 (Homo sapiens, UniProt Q00534); test: Assay for inhibition of CDK6/CyclinD3 (Caliper microfluidic kinase assay); type: biochemical; conditions: CDK6/CyclinD3, 300 μM ATP
T2 construct: purchased Carna 04-107
In short: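 IC50s came from four-parameter dose-response fits of microfluidic substrate/product separation data. Reactions held 2 nM CDK6/CyclinD3, 300 μM ATP and 1 μM 5-FAM peptide FL-34 in pH 7.5 HEPES/MgCl2 buffer, ran 3 hours at room temperature, then were quenched with EDTA.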

CDK2/CyclinE1 = biological target: T3, CDK2/CyclinE1 (Homo sapiens, UniProt P24941); test: Assay for inhibition of CDK2/CyclinE1 (Caliper microfluidic kinase assay); type: biochemical; conditions: CDK2/CyclinE1, 100 μM ATP; read-out: CDK2 IC50
T3 construct: purchased SignalChem C29-18G
In short: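 IC50 came from 4-parameter fits of substrate-to-product conversion, separated on a Caliper chip after an EDTA stop. Reactions ran 3 hours at room temperature with 100 μM ATP, 5 μM fluorescent FL-18 peptide and 5 nM enzyme in 100 mM HEPES pH 7.5, 10 mM MgCl2.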

T47D breast cancer cells = test: Anti-proliferation assay in T47D cell (Cyquant, day 6); type: cell-based, human; conditions: Homo sapiens, T47D, read-out: T47D IC50
In short: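 A ten-point, 3-fold compound series (10 μM down to 0.51 nM) was applied to overnight-settled cells in 10% FBS RPMI 1640, and DNA content was read by CyQuant fluorescence 6 days later. An untreated plate read before dosing served as baseline for subtraction before IC50 fitting.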

[1] = tested on: phosphorylation of Retinoblastoma Protein (pRb Ser807/811 or Ser780) in T47D cells; test: Inhibition of phosphorylation of retinoblastoma protein (pRb) in T47D cell (ELISA); type: cell-based, human; conditions: Homo sapiens, T47D
Procedure: T47D breast cancer cells from American Type Culture Collection (ATCC, HTB-133) were plated at 40,000 cells/well in 96-well plates, and were incubated in RPMI 1640 medium (Gibco, 31800105) with 10% Fetal Bovine Serum (FBS, Biowest, FB-1058). Cells were then allowed to adhere overnight at 37° C., 5% CO2. The following day, compounds were titrated in a 3-fold dilution scheme, and the highest compound concentration tested was […]. After 24 hours incubation with compounds, cells were lysed in ice-cold lysis buffer containing phosphatase inhibitor cocktail and 1 mM PMSF. Cell lysates (50 μL/well) were then transferred to ELISA plates (pRb Ser807/811 ELISA kit, Cell Signaling, 13152 or pRb Ser780 ELISA kit, Cell Signaling, 13016)). Plates were incubated overnight at 4° C., with constant slow speed shaking. After incubation, plates were washed following manufacturer's recommendations, and then 100 μL reconstituted detection antibody was added to each well and incubated for 1 hour at 37° C. After incubation, plates were washed, and then 100 μL reconstituted HRP-linked secondary antibody was added to each well and incubated for 30 mins at 37° C. After incubation, plates were washed. Then, 100 μL TMB substrate was added to each well and incubated for 10 min at 37° C. or 30 min at 25° C. Finally, 100 μL of STOP solution was added to each well and mixed gently for a few seconds. Plates were read on the Envision plate reader (PerkinElmer, 2104-0010) using the 96-well […] mode. IC50 values were calculated using 4 parameter sigmoidal dose-response model of Xlfit5/GraphPad Prism 5 software.

[2] = read-out: Phospho T47D Ser807 IC50, pRb Ser807 phosphorylation, T47D cells

T1 sequence (P11802 whole entry): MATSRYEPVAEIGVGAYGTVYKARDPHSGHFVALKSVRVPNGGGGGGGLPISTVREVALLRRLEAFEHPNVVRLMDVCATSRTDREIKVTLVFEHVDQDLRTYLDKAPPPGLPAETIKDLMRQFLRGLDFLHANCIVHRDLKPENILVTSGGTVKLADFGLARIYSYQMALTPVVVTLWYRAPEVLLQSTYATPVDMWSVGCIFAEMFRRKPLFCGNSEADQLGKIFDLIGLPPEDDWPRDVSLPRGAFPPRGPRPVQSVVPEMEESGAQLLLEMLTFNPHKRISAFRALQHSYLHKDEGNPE
T1 sequence (P24385 whole entry partner): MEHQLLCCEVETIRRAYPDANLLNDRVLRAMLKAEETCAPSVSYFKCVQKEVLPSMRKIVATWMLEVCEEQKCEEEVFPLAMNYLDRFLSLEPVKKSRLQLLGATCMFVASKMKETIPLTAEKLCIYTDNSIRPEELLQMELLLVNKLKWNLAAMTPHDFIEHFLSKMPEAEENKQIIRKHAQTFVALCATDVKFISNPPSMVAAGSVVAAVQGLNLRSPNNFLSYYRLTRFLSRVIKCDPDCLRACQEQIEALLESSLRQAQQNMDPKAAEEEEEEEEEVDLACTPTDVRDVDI
T2 sequence (Q00534 whole entry): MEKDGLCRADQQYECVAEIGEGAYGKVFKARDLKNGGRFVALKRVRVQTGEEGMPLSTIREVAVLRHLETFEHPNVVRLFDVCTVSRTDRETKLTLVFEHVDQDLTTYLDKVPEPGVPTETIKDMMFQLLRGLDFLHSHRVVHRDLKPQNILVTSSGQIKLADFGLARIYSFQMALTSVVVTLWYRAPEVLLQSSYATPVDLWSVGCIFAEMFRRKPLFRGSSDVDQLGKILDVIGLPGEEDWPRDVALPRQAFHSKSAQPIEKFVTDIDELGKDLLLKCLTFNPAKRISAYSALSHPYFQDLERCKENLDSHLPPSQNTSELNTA
T2 sequence (P30281 whole entry partner): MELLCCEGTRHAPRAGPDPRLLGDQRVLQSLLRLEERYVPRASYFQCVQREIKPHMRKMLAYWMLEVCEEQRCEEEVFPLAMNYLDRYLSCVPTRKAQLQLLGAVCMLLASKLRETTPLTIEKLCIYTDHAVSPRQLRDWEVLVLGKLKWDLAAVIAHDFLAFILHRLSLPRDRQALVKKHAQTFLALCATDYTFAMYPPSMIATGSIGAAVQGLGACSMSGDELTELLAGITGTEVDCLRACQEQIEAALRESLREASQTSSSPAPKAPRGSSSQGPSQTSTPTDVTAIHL

Row | SMILES | IC50 (CDK4/CyclinD1) | IC50 (CDK6/CyclinD3) | IC50 (CDK2/CyclinE1) | IC50 (T47D breast cancer cells; anti-proliferation, T47D cells) | IC50 [1, 2] | IC50 (T47D breast cancer cells) | IC50 ([1]; read-out: Phospho T47D Ser807 IC50)
1 | CC(C)c1cnn2ccc(-c3nc(Nc4ccc(N5CCNCC5=O)cn4)ncc3F)cc12 [Synthetic Example 29] | < 10 nM | 10 to 100 nM | 10 to 100 nM | < 100 nM | < 100 nM | – | –
2 | CC(C)c1cnn2ccc(-c3ccnc(Nc4ccc(N5CC(N(C)C)CC5=O)cn4)n3)cc12 (stereo not shown) [Synthetic Example 39] | < 10 nM | 10 to 100 nM | 10 to 100 nM | < 100 nM | < 100 nM | – | –
3 | CC(C)c1cnn2ccc(-c3ccnc(Nc4ccc(N5CCN(C6CNC6)CC5=O)cn4)n3)cc12 [Synthetic Example 40] | < 10 nM | 10 to 100 nM | 10 to 100 nM | – | – | < 100 nM | < 100 nM
4 | CC(C)c1cnn2ccc(-c3nc(Nc4ccc(N5CCN(C6COC6)CCC5=O)cn4)ncc3F)cc12 [Synthetic Example 43] | < 10 nM | 10 to 100 nM | 10 to 100 nM | < 100 nM | < 100 nM | – | –
5 | CC(C)n1cnc2c1CN(c1ccnc(Nc3ccc(N4CCOCC4=O)cn3)n1)CC2 [Synthetic Example 57] | < 10 nM | 100 to 1000 nM | 10 to 100 nM | 100 to 500 nM | < 100 nM | – | –
6 | CC1(C)COc2c(F)cc(-c3ccnc(Nc4ccc(N5CCNCC5=O)cn4)n3)cc21 [Synthetic Example 59] | < 10 nM | 10 to 100 nM | 10 to 100 nM | < 100 nM | < 100 nM | – | –
7 | CC(C)n1cnc2c(F)nc(-c3ccnc(Nc4ccc(N5CCOCC5=O)cn4)n3)cc21 [Synthetic Example 61] | < 10 nM | 10 to 100 nM | 10 to 100 nM | < 100 nM | < 100 nM | – | –
8 | COc1nc(-c2nc(Nc3ccc(N4CCC(N(C)C)CC4=O)cn3)ncc2F)cc2c1nc(C)n2C(C)C (stereo not shown) [Synthetic Example 62, 4-(dimethylamino)-1-[6-[[5-fluoro-4-(1-isopropyl-4-methoxy-2-methyl-imidazo[4,5-c]pyridin-6-yl)pyrimidin-2-yl]amino]-3-pyridyl]piperidin-2-one] | < 10 nM | 10 to 100 nM | > 1000 nM | < 100 nM | < 100 nM | – | –
9 | COc1nc(-c2nc(Nc3ccc(N4CCNCC4)cn3)ncc2F)cc2c1nc(C)n2C(C)C [Synthetic Example 106] | < 10 nM | 10 to 100 nM | > 1000 nM | 100 to 500 nM | < 100 nM | – | –
10 | COc1nc(-c2nc(Nc3ccc(N4CCN(S(C)(=O)=O)CC4=O)cn3)ncc2F)cc2c1nc(C)n2C(C)C [Synthetic Example 127] | < 10 nM | 10 to 100 nM | 100 to 1000 nM | 100 to 500 nM | 100 to 500 nM | – | –
11 | CCN1CCN(c2ccc(Nc3ncc(F)c(-c4cc5c(nc(C)n5C(C)C)c(OC)n4)n3)nc2)C(=O)C1 [Synthetic Example 128] | < 10 nM | 10 to 100 nM | > 1000 nM | – | < 100 nM | 100 to 500 nM | –
12 | CN(C)C1CCN(c2ccc(Nc3nccc(-c4ccn5ncc(C(C)(C)C)c5c4)n3)nc2)C(=O)C1 (stereo not shown) [Synthetic Example 175] | < 10 nM | < 10 nM | < 10 nM | < 100 nM | < 100 nM | – | –
13 | CNC1CCN(c2ccc(Nc3nccc(-c4ccn5ncc(C(C)C)c5c4)n3)nc2)C(=O)C1 (stereo not shown) [Synthetic Example 204, 1-[6-[[4-(3-isopropylpyrazolo[1,5-a]pyridin-5-yl)pyrimidin-2-yl]amino]-3-pyridyl]-4-(methylamino)piperidin-2-one] | < 10 nM | < 10 nM | < 10 nM | < 100 nM | < 100 nM | – | –
14 | Cc1nc2c(F)nc(-c3ccnc(Nc4ccc(N5CCCC(N(C)C)C5=O)cn4)n3)cc2n1C(C)C (stereo not shown) [Synthetic Example 301, 3-(dimethylamino)-1-[6-[[4-(4-fluoro-1-isopropyl-2-methyl-imidazo[4,5-c]pyridin-6-yl)pyrimidin-2-yl]amino]-3-pyridyl]piperidin-2-one] | < 10 nM | < 10 nM | > 1000 nM | < 100 nM | < 100 nM | – | –
